PubChem BioAssay (NCI)
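Each compound was tested at five concentrations against cells in 96-well plates for 48 hours. At the TGI there is no net growth.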

What was measured:
Experiment in all cases: NCI-60 cell line screen, 48 h
SW-620 colon = tested on: SW-620 colon
SF-268 CNS = tested on: SF-268 CNS
SK-MEL-5 melanoma = tested on: SK-MEL-5 melanoma
NCI-H522 lung = tested on: NCI-H522 lung
A498 renal = tested on: A498 renal
RXF 393 renal = tested on: RXF 393 renal
SF-295 CNS = tested on: SF-295 CNS
DU-145 prostate = tested on: DU-145 prostate
COLO 205 colon = tested on: COLO 205 colon
OVCAR-8 ovarian = tested on: OVCAR-8 ovarian
LOX IMVI melanoma = tested on: LOX IMVI melanoma
T-47D breast = tested on: T-47D breast
MCF7 breast = tested on: MCF7 breast
NCI-H460 lung = tested on: NCI-H460 lung
UO-31 renal = tested on: UO-31 renal
SR leukemia = tested on: SR leukemia
TK-10 renal = tested on: TK-10 renal
OVCAR-4 ovarian = tested on: OVCAR-4 ovarian
SN12C renal = tested on: SN12C renal
MDA-MB-231 breast = tested on: MDA-MB-231 breast
BT-549 breast = tested on: BT-549 breast
CAKI-1 renal = tested on: CAKI-1 renal
UACC-257 melanoma = tested on: UACC-257 melanoma
SNB-19 CNS = tested on: SNB-19 CNS
K-562 leukemia = tested on: K-562 leukemia
NCI-H23 lung = tested on: NCI-H23 lung
PC-3 prostate = tested on: PC-3 prostate
M14 melanoma = tested on: M14 melanoma
SK-MEL-28 melanoma = tested on: SK-MEL-28 melanoma
HOP-62 NSCLC = tested on: HOP-62 NSCLC
U251 CNS = tested on: U251 CNS
HT29 colon = tested on: HT29 colon
MDA-MB-435 = tested on: MDA-MB-435
EKVX NSCLC = tested on: EKVX NSCLC
IGROV1 ovarian = tested on: IGROV1 ovarian
RPMI-8226 leukemia = tested on: RPMI-8226 leukemia
HS 578T breast = tested on: HS 578T breast
HCT-116 colon = tested on: HCT-116 colon
HOP-92 NSCLC = tested on: HOP-92 NSCLC
UACC-62 melanoma = tested on: UACC-62 melanoma
HL-60(TB) leukemia = tested on: HL-60(TB) leukemia
786-0 renal = tested on: 786-0 renal
HCT-15 colon = tested on: HCT-15 colon
KM12 colon = tested on: KM12 colon
HCC-2998 colon = tested on: HCC-2998 colon
ACHN renal = tested on: ACHN renal
MOLT-4 leukemia = tested on: MOLT-4 leukemia
A549 NSCLC = tested on: A549 NSCLC
OVCAR-5 ovarian = tested on: OVCAR-5 ovarian
SK-MEL-2 melanoma = tested on: SK-MEL-2 melanoma
MALME-3M melanoma = tested on: MALME-3M melanoma
NCI/ADR-RES ovarian = tested on: NCI/ADR-RES ovarian
MDA-N = tested on: MDA-N
SK-OV-3 ovarian = tested on: SK-OV-3 ovarian
NCI-H226 lung = tested on: NCI-H226 lung
CCRF-CEM leukemia = tested on: CCRF-CEM leukemia
SNB-75 CNS = tested on: SNB-75 CNS
OVCAR-3 ovarian = tested on: OVCAR-3 ovarian
SF-539 CNS = tested on: SF-539 CNS

Question: `CCN(CC)CCn1nc(N)c2nc3cc(Cl)ccc3nc21` was tested. Which TGI (SW-620 colon) did it give?
Answer: The TGI was over 100 µM.

Question: And the TGI (SF-268 CNS)?
Answer: Its TGI is over 100 µM.

Question: And the TGI (SK-MEL-5 melanoma)?
Answer: Its TGI is 74.1 µM.

Question: And the TGI (NCI-H522 lung)?
Answer: The TGI was over 100 µM.

Question: What about the TGI (A498 renal) of the same molecule?
Answer: Its TGI is over 100 µM.

Question: What about the TGI (RXF 393 renal) of the same molecule?
Answer: The TGI was over 100 µM.

Question: What about the TGI (SF-295 CNS) of the same molecule?
Answer: Its TGI is over 100 µM.

Question: And the TGI (DU-145 prostate)?
Answer: Its TGI is over 100 µM.

Question: And the TGI (COLO 205 colon)?
Answer: The TGI was over 100 µM.

Question: And the TGI (OVCAR-8 ovarian)?
Answer: The TGI was over 100 µM.

Question: And the TGI (LOX IMVI melanoma)?
Answer: The TGI was over 100 µM.

Question: And the TGI (T-47D breast)?
Answer: The TGI was over 100 µM.

Question: And the TGI (MCF7 breast)?
Answer: The TGI was over 100 µM.

Question: And the TGI (NCI-H460 lung)?
Answer: Its TGI is over 100 µM.

Question: And the TGI (UO-31 renal)?
Answer: The TGI was over 100 µM.

Question: And the TGI (SR leukemia)?
Answer: The TGI was over 100 µM.

Question: What about the TGI (TK-10 renal) of the same molecule?
Answer: Its TGI is over 100 µM.

Question: And the TGI (OVCAR-4 ovarian)?
Answer: The TGI was over 100 µM.

Question: And the TGI (SN12C renal)?
Answer: Its TGI is over 100 µM.

Question: And the TGI (MDA-MB-231 breast)?
Answer: Its TGI is over 100 µM.

Question: And the TGI (BT-549 breast)?
Answer: The TGI was over 100 µM.

Question: And the TGI (CAKI-1 renal)?
Answer: The TGI was over 100 µM.

Question: What about the TGI (UACC-257 melanoma) of the same molecule?
Answer: Its TGI is over 100 µM.

Question: And the TGI (SNB-19 CNS)?
Answer: Its TGI is over 100 µM.

Question: What about the TGI (K-562 leukemia) of the same molecule?
Answer: The TGI was over 100 µM.

Question: What about the TGI (NCI-H23 lung) of the same molecule?
Answer: Its TGI is over 100 µM.

Question: What about the TGI (PC-3 prostate) of the same molecule?
Answer: The TGI was over 100 µM.

Question: And the TGI (M14 melanoma)?
Answer: Its TGI is over 100 µM.

Question: What about the TGI (SK-MEL-28 melanoma) of the same molecule?
Answer: The TGI was over 100 µM.

Question: What about the TGI (HOP-62 NSCLC) of the same molecule?
Answer: Its TGI is over 100 µM.

Question: And the TGI (U251 CNS)?
Answer: The TGI was over 100 µM.

Question: What about the TGI (HT29 colon) of the same molecule?
Answer: Its TGI is over 100 µM.

Question: What about the TGI (MDA-MB-435) of the same molecule?
Answer: Its TGI is over 100 µM.

Question: What about the TGI (EKVX NSCLC) of the same molecule?
Answer: Its TGI is over 100 µM.

Question: And the TGI (IGROV1 ovarian)?
Answer: Its TGI is 52.8 µM.

Question: And the TGI (RPMI-8226 leukemia)?
Answer: The TGI was over 100 µM.

Question: And the TGI (HS 578T breast)?
Answer: Its TGI is over 100 µM.

Question: And the TGI (HCT-116 colon)?
Answer: Its TGI is over 100 µM.

Question: What about the TGI (HOP-92 NSCLC) of the same molecule?
Answer: The TGI was over 100 µM.

Question: What about the TGI (UACC-62 melanoma) of the same molecule?
Answer: The TGI was over 100 µM.

Question: What about the TGI (HL-60(TB) leukemia) of the same molecule?
Answer: The TGI was over 100 µM.

Question: What about the TGI (786-0 renal) of the same molecule?
Answer: Its TGI is over 100 µM.

Question: And the TGI (HCT-15 colon)?
Answer: The TGI was over 100 µM.

Question: What about the TGI (KM12 colon) of the same molecule?
Answer: Its TGI is over 100 µM.

Question: What about the TGI (HCC-2998 colon) of the same molecule?
Answer: Its TGI is over 100 µM.

Question: And the TGI (ACHN renal)?
Answer: Its TGI is over 100 µM.

Question: What about the TGI (MOLT-4 leukemia) of the same molecule?
Answer: Its TGI is over 100 µM.

Question: And the TGI (A549 NSCLC)?
Answer: Its TGI is over 100 µM.

Question: And the TGI (OVCAR-5 ovarian)?
Answer: The TGI was over 100 µM.

Question: And the TGI (SK-MEL-2 melanoma)?
Answer: Its TGI is over 100 µM.

Question: What about the TGI (MALME-3M melanoma) of the same molecule?
Answer: The TGI was over 100 µM.

Question: And the TGI (NCI/ADR-RES ovarian)?
Answer: Its TGI is over 100 µM.

Question: And the TGI (MDA-N)?
Answer: The TGI was over 100 µM.

Question: And the TGI (SK-OV-3 ovarian)?
Answer: The TGI was over 100 µM.

Question: And the TGI (NCI-H226 lung)?
Answer: The TGI was over 100 µM.

Question: What does the source list for `O=C1NC(=O)C(c2c[nH]c3cc(Br)ccc23)=C1c1cn(C(c2ccccc2)(c2ccccc2)c2ccccc2)cn1`?
Answer: TGI (SW-620 colon): > 100 µM; TGI (SF-268 CNS): 33.1 µM; TGI (SK-MEL-5 melanoma): 22.9 µM; TGI (NCI-H522 lung): 34 µM; TGI (A498 renal): 37.2 µM; TGI (RXF 393 renal): 37.5 µM; TGI (SF-295 CNS): > 100 µM; TGI (DU-145 prostate): 62.8 µM; TGI (COLO 205 colon): 27.4 µM; TGI (OVCAR-8 ovarian): 36.5 µM; TGI (CCRF-CEM leukemia): > 100 µM; TGI (LOX IMVI melanoma): 33.4 µM; TGI (T-47D breast): 93 µM; TGI (MCF7 breast): 40.4 µM; TGI (NCI-H460 lung): 31.4 µM; TGI (UO-31 renal): 31.9 µM; TGI (SR leukemia): 32.3 µM; TGI (TK-10 renal): 38.4 µM; TGI (OVCAR-4 ovarian): > 100 µM; TGI (SN12C renal): 31.8 µM; TGI (MDA-MB-231 breast): 21.4 µM; TGI (BT-549 breast): 38.8 µM; TGI (CAKI-1 renal): 97.4 µM; TGI (UACC-257 melanoma): 51.2 µM; TGI (SNB-19 CNS): 97.4 µM; TGI (K-562 leukemia): 45.9 µM; TGI (NCI-H23 lung): 25.3 µM; TGI (PC-3 prostate): 50.4 µM; TGI (M14 melanoma): 29.9 µM; TGI (SK-MEL-28 melanoma): 92.6 µM; TGI (HOP-62 NSCLC): 83.9 µM; TGI (U251 CNS): 24.7 µM; TGI (HT29 colon): 27.1 µM; TGI (MDA-MB-435): > 100 µM; TGI (EKVX NSCLC): 29.1 µM; TGI (IGROV1 ovarian): 28.5 µM; TGI (RPMI-8226 leukemia): 36.8 µM; TGI (HS 578T breast): > 100 µM; TGI (SNB-75 CNS): 48.8 µM; TGI (OVCAR-3 ovarian): > 100 µM; TGI (HCT-116 colon): 23.6 µM; TGI (HOP-92 NSCLC): 30.3 µM; TGI (UACC-62 melanoma): > 100 µM; TGI (HL-60(TB) leukemia): 39.5 µM; TGI (786-0 renal): 23.2 µM; TGI (HCT-15 colon): 37.6 µM; TGI (KM12 colon): > 100 µM; TGI (SF-539 CNS): 37.9 µM; TGI (HCC-2998 colon): 26.4 µM; TGI (ACHN renal): > 100 µM; TGI (MOLT-4 leukemia): 23.5 µM; TGI (A549 NSCLC): 27.3 µM; TGI (OVCAR-5 ovarian): 39 µM; TGI (SK-MEL-2 melanoma): 25.8 µM; TGI (MALME-3M melanoma): 56.8 µM; TGI (NCI/ADR-RES ovarian): > 100 µM; TGI (MDA-N): 27.8 µM; TGI (SK-OV-3 ovarian): > 100 µM; TGI (NCI-H226 lung): 19.3 µM
